Legend:
[1] = test system: advanced ACC; assay: Diagnostic imaging and biokinetics with [123I]IMTO and [123I]IMAZA in patients with advanced ACC; type: in vivo, human; parameters: AUC (time integral of the uptake function): concentration or dose not given beside the values
Method: Three patients (#1, #2, and #3) were investigated by [^123I]IMAZA (administered doses, 117, 163, and 182 MBq, respectively) and subsequently by [^123I]IMTO (176, 169, and 146 MBq, respectively). The time interval between the imaging studies was at least 5 days. Scintigraphic imaging was performed using a Siemens Symbia dual-head gamma camera equipped with medium-energy parallel-hole collimators. Activity concentration was measured in whole blood samples drawn at 2 min, 5 min, 15 min, 1 h, 2.5 h, 5 h, and 23 h after the administration. Plasma activity was analyzed in patient #1.

[2] = test system: NCI-H295 cells; assay: Cell uptake of 125I-labeled tracers in NCI-H295 cells, with and without etomidate; type: cell-based, human; parameters: Intracellular uptake with co-incubation of etomidate: dose or concentration left out as unconfirmed
Method: (§1) NCI-H295 cells (n = 250,000 per vial) were incubated with 0.1 MBq of the respective ^125I-labeled tracer at 37 °C, 5% CO2. For the blocking experiment, the cells were co-incubated with etomidate. Aliquots were taken and immediately placed into a 4 °C ice bath. After 5 min, the solution was centrifuged and rinsed twice with PBS/0.5% Tween 80, and the collected rinse solution was measured in a gamma counter. Assays were performed in triplicates. The intracellular distribution of the respective ^125I-labeled inhibitors and the specific binding to mitochondrial membranes were verified using a commercially available kit (Qiagen Qproteome Mitochondria isolation).
Fig. 3 a In vitro uptake kinetics of [^125I]IMTO, [^125I]IMAZA, [^125I]3, and [^125I]4 in NCI-H295 cells. b Cellular uptake of [^125I]IMTO, [^125I]IMAZA, [^125I]3, and [^125I]4 in NCI-H295 cells with and without co-incubation with etomidate. Cells […] (n = 3). c Cellular subfractionation of NCIH295 cells exposed to 0.1 MBq [^125I]IMTO, [^125I]IMAZA, [^125I]3, and [^125I]4 for 30 min at 37 °C. Distribution of the tracer compounds among the respective cellular subfractions

[3] = test system: human adrenocortical and non-adrenocortical tissue cryosections; assay: Autoradiographic binding to human tissue cryosections
Method: Human tissues were quick frozen in liquid nitrogen to block further biological processes including protein degradation and stored at –80 °C. Frozen samples from adrenocortical carcinoma (ACC; n = 3), aldosterone-producing adenoma (APA; n = 2), and cortisol-producing adenoma (CPA; n = 2), normal adrenal, kidney, and liver were sectioned into 20-µm-thick tissue slices, thaw-mounted onto Superfrost slides (PAP PEN, Zymed® Laboratories) and stored at –80 °C until processing. For the experimental set up, the tissue slices were pre-incubated for 5 min at room temperature with buffer solution (pH 7.4, 50 mM Tris). Afterwards, the slices were directly incubated with TRIS HCl buffer solution containing 2% BSA. After 1-h blocking, slides were treated with 0.1 MBq of the different compounds. As controls, slides were incubated with 0.1 MBq of the compounds in 10 µM of the non-radioactive compound to assess binding specificity. In the following, slides were washed twice with 50 mM Tris HCl buffer solution (pH 7.4). For exposure, samples were placed on Phosphor Imager plates for 30 min in dedicated lead-shielded cassettes. Autoradiographic images were analyzed with a CR35BIO Image plate scanner, and data analysis was performed with Amide software version 0.9.0.
Fig. 5 Ex vivo imaging of normal adrenal gland, adrenocortical tumors, and control tissue (kidney, liver). Autoradiographic visualization of [^125I]IMTO and [^125I]IMAZA accumulation in the normal adrenal gland, in adrenocortical tumors (ACC, APA, CPA), kidney, and liver as control tissue (sections with 20 µm slice thickness) (representative example). […] The red circles show the position of the organs that are not shown in the imaging. A = 0.1 MBq tracer, B = 0.1 MBq tracer plus non-radioactive 10 µM inhibitor

[4] = test system: NCI-H295 cells; assay: Cellular subfractionation of NCI-H295 cells exposed to 125I-labeled tracers; type: cell-based, human
Method: as §1
Fig. 3 a In vitro uptake kinetics of [^125I]IMTO, [^125I]IMAZA, [^125I]3, and [^125I]4 in NCI-H295 cells. b Cellular uptake of [^125I]IMTO, [^125I]IMAZA, [^125I]3, and [^125I]4 in NCI-H295 cells with and without co-incubation with etomidate. Cells were incubated with 0.1 MBq of the respective compounds and co-incubated with (0.1 µM, 10 µM, 100 µM) etomidate to monitor the specific uptake (n = 3). c Cellular subfractionation of NCIH295 cells exposed to 0.1 MBq [^125I]IMTO, [^125I]IMAZA, [^125I]3, and [^125I]4 for 30 min at 37 °C. Distribution of the tracer compounds among the respective cellular subfractions

[5] = Metabolic inactivation by human liver microsomes in vitro (radio-HPLC); type: in vitro ADME; details: human liver microsomes, radio-HPLC
Method: Metabolic degradation was determined by co-incubation of the tracers with human liver microsomes (Sigma, M0317). Experiments were conducted in triplicates. Incubation mixtures consisted of liver microsomes (0.2 mg/ml), the respective ^125I-labeled compound (0.1 MBq), MgCl2 (3.3 mM), and NADPH (1.3 mM) in a total volume of 0.6 ml K3PO4 puffer (25 mM, pH 7.2). The reaction was started with the addition of NADPH and incubated at 37 °C. At predefined time points, aliquots were removed, and the reaction was terminated by adding 160 µL ice-cold methanol. After centrifugation (5000 × g, 4 °C for 4 min), the supernatant was analyzed by radio-HPLC (see experimental details and Supplementary Fig. 1 in Supplement).

[6] = test system: adrenal gland; assay: Biodistribution in male CD-1 mice; type: in vivo; details: for Uptake in the adrenals: i.v. 0.1 MBq
Method: Six- to 8-week old male CD-1 mice received 0.1 MBq [^125I]IMTO [17] or the ^125I-labeled IMTO-analogues as intravenous injection in the tail vein. At predefined time points, mice were sacrificed (min. n = 5 per time point). Blood and urine were collected, and several organs were excised and weighed, and tracer uptake was determined by measurement in a γ-counter.
Fig. 4 Biodistribution of [^125I]IMTO and the new compounds [^125I]IMAZA, [^125I]3, and [^125I]4 in male CD-1 mice. Mice were injected i.v. with 0.1 MBq of respective compounds. Ex vivo organ dosimetry was performed at predefined time points 15 min, 30 min, 120 min, and 240 min after tracer injection. Results are expressed as percentage of injected dose per gram organ (%ID/g). Exact numbers on uptake in the adrenal as %ID/g for the compounds are given in the supplemental data

[7] = test system: metastatic ACC; assay: Dosimetry and endoradiotherapy with [131I]IMAZA in a patient with metastatic ACC; type: in vivo, human
Source text: Patient #1 had experienced disease progression with a more than fourfold increase in their dominant lesions within only 4 months after a phase of disease stabilization after standard treatment with mitotane and eight courses of combination chemotherapy with etoposide, doxorubicin, and cisplatin. They received therapeutic doses with 28.2 GBq [^131I]IMAZA 1 month and with 30.5 GBq [^131I]IMAZA 7 months after the evaluation with [^123I]IMAZA. Prior to the first treatment, the absorbed dose to the blood was measured with a tracer activity of 72 MBq [^131I]IMAZA as a surrogate for the exposure of the dose-limiting organ, the red bone marrow. The absorbed dose to the blood was estimated from assessments of the activity kinetics in total body and blood up to 48 h when the mean activity concentrations had dropped to 5% of the values at 5 min after the administration in the total body and to 1% in the blood. During therapy, the total body activity retention was measured with a survey meter in the ceiling over the patient’s bed. Gamma camera whole body scans accompanied by blood sampling were acquired starting 4 days post-administration after the first and 2 days after the second therapy until dismissal. SPECT/CT imaging was performed after 4 and 5 days, respectively.
Tumor evaluation was performed by [^18F]FDG PET/CT at baseline and 2, 5, 8, 11, 14, and 21 months after administration of the first treatment dose. Subsequently, the patient declined further follow-up imaging or additional therapeutic interventions.

[8] = three patients with advanced ACC
[9] = tumor lesion: patient #1, lesion #1
[10] = tumor lesion: patient #1, lesion #2
[11] = tumor lesion: patient #2, lesion #1
[12] = tumor lesion: patient #3, lesion #1
[13] = tumor lesion: patient #3, lesion #2
[14] = patient #1, pre-therapeutic kinetics assessment with [131I]IMAZA

COC(=O)c1cncn1[C@H](C)c1ccc([123I])cc1 [[^123I]IMTO, [^123I]iodometomidate]
AUC (time integral of the uptake function) ([1]; median of five tumor lesions): 0.0024 h/g | effective half-live ([1]; median of five tumor lesions): 11.0 h | uptake ([1]; median of five tumor lesions): 0.011 %/g | Activity concentration in plasma, times higher than in whole blood ([1]; patient #1, hematocrit 35%): 1.16 times | Residence time per liter of whole blood, times higher than for [123I]IMAZA [1, 8]: 3.6 ± 1.5 times | Total body residence time, times higher than for [123I]IMAZA [1, 8]: 2.2 ± 0.2 times | AUC (time integral of the uptake function) [1, 9]: 0.0031 h/g | effective half-live [1, 9]: 11.2 h | uptake ([1]; tumor lesion: patient #1, lesion #1, SPECT/CT, normalised to administered activity): 0.015 %/g | AUC (time integral of the uptake function) [1, 10]: 0.0024 h/g | effective half-live [1, 10]: 11.0 h | uptake ([1]; tumor lesion: patient #1, lesion #2, SPECT/CT): 0.011 %/g | AUC (time integral of the uptake function) [1, 11]: 0.0016 h/g | effective half-live [1, 11]: 12.4 h | uptake ([1]; tumor lesion: patient #2, lesion #1, SPECT/CT): 0.006 %/g | AUC (time integral of the uptake function) [1, 12]: 0.0017 h/g | effective half-live [1, 12]: 8.0 h | uptake ([1]; tumor lesion: patient #3, lesion #1, SPECT/CT): 0.010 %/g | AUC (time integral of the uptake function) [1, 13]: 0.0056 h/g | effective half-live [1, 13]: 10.1 h | uptake ([1]; tumor lesion: patient #3, lesion #2, SPECT/CT): 0.027 %/g

C[C@H](c1ccc([125I])cc1)n1cncc1C(=O)N1CCC1 [[^125I]IMAZA]
Intracellular uptake with co-incubation of etomidate ([2]; NCI-H295 cells): 8.6% | Uptake with co-incubation of etomidate ([2]; NCI-H295 cells, highest concentration 100 µM etomidate): almost completely blocked | Intracellular uptake in NCI-H295 cells compared with [125I]IMTO ([2]; at 30 min): highest uptake | Autoradiographic signal compared with [125I]IMTO ([3]; human adrenocortical tissue): distinctively stronger | Binding to control tissue (liver, kidney) ([3]; human liver n = 2, kidney n = 1): no binding was detected | Binding to ACC, APA, and CPA tissue ([3]; human tissue sections 20 µm, 0.1 MBq tracer, ± 10 µM non-radioactive compound): very strong and specific binding | Subcellular distribution compared with [125I]IMTO ([4]; 30 min): similar | Metabolic stability compared with [125I]IMTO [5]: more than threefold longer half-life | Uptake in the non-target organs ([6]; male CD-1 mice): extremely low uptake values | Uptake in the adrenals ([6]; male CD-1 mice, 15 min): 710.9 ± 210.5 %ID/g | Uptake in the adrenals ([6]; male CD-1 mice, 30 min): 720.4 ± 169.7 %ID/g | Uptake in the adrenals ([6]; male CD-1 mice, 120 min): 395.7 ± 92.7 %ID/g | Uptake in the adrenals ([6]; male CD-1 mice, 240 min): 275.4 ± 124.1 %ID/g | Uptake at the latest time point, times higher compared to [125I]IMTO ([6]; mice): 10 times | Tracer uptake and target to background ratios compared with [125I]IMTO ([6]; mice biodistribution): higher tracer uptake with better target to background ratios

COC(=O)c1cncn1C(C)c1ccc([125I])cc1 (stereo not drawn) [[^125I]IMTO, reference compound]
Intracellular uptake with co-incubation of etomidate ([2]; NCI-H295 cells): 28.2% | Intracellular uptake in NCI-H295 cells ([2]; after 30 min, 0.1 MBq tracer, 37 °C): 36.4% | Accumulation in the cytosolic fraction ([4]; 0.1 MBq, 30 min at 37 °C): 7% | Accumulation in the mitochondrial subfraction ([4]; 0.1 MBq, 30 min at 37 °C): 59.4% | Accumulation in the nuclei, cell debris subfraction ([4]; 0.1 MBq, 30 min at 37 °C): 33.6% | Uptake in the adrenals ([6]; male CD-1 mice, 15 min): 491.2 ± 170.3 %ID/g | Uptake in the adrenals ([6]; male CD-1 mice, 30 min): 321.3 ± 170.6 %ID/g | Uptake in the adrenals ([6]; male CD-1 mice, 120 min): 80.5 ± 43.7 %ID/g | Uptake in the adrenals ([6]; male CD-1 mice, 240 min): 27.4 ± 25.9 %ID/g

C[C@H](c1ccc([131I])cc1)n1cncc1C(=O)N1CCC1 [[^131I]IMAZA]
Mean blood absorbed dose ([1]; kinetics recalculated for 131I from 123I diagnostics in patients): 0.03 Gy/GBq | Long-term disease stabilization (progression-free survival) ([7]; patient #1, after first treatment): 21 months | Survival (overall survival) ([7]; patient #1, after initial endoradiotherapy): 30 months | Absorbed dose for both the liver and the kidney ([7]; patient #1, estimated): below 0.2 Gy/GBq | Absorbed dose to the blood ([7]; patient #1, first therapy with 28.2 GBq): 1.1 Gy | Activity giving an absorbed dose to the blood of 2 Gy ([7]; patient #1, pre-therapeutic kinetics assessment): 63 GBq | Absorbed dose to the blood [7, 14]: 0.032 Gy/GBq | Residence time in the whole blood [7, 14]: 0.17 h per liter of whole blood | Residence time in the total body ([7]; patient #1, pre-therapeutic kinetics assessment with tracer activity): 10.9 h

Source: paper PMC8712301, “Novel CYP11B-ligand [^123/131I]IMAZA as promising theranostic tool for adrenocortical tumors: comprehensive preclinical characterization and first clinical experience” (European Journal of Nuclear Medicine and Molecular Imaging, 2021)
